# Read-outs that look alike come from different tables or passages of the source.
# How the values were obtained:
# [1] = system: MOG35–55-induced murine model of chronic progressive Experimental Autoimmune Encephalomyelitis (EAE); assay: EAE therapeutic model, disease scores; assay type: in vivo
# [2] = Stability in biological media; assay type: in vitro ADME; conditions: biological media (plasma and hepatocytes media)
# [3] = target: T1, DYRK1A (Rattus norvegicus, UniProt Q63470); assay: DYRK1A ELISA kinase assay; assay type: biochemical; conditions: for times less potent against DYRK1A compared to the di-hydroxy derivatives: A-ring hydroxyl removal, vs GCG
# [4] = cited from earlier work
# [5] = mice; cited from earlier work
# [6] = Exposure after intranasal compared to oral route; assay type: in vivo; conditions: brain and peripheral blood; data not shown
# [7] = system: spinal cord inflammation, demyelination, and axonal neurodegeneration; assay: Histopathological analysis of spinal cord sections of EAE mice; assay type: in vivo; conditions: intranasal vs oral, 15 mg/kg BID
# [8] = target: T1, DYRK1A; assay: DYRK1A ELISA assay with varying concentrations of ATP; assay type: biochemical; conditions: [ATP] up to 0.8 mM
smiles,measurement,setting,value
"CCCCCCCCc1ccc(CCC(N)(CO)CO)cc1 [FTY720, Fingolimod, reference compound]",EAE disease scores,[1]; 1 mg/kg QD,reversal of the disease scores
O=C(O[C@@H]1Cc2c(O)cc(O)cc2O[C@H]1c1ccc(O)c(O)c1)c1cc(O)c(O)c(O)c1F (racemic) [1r],stability in biological media,[2],improved stability in biological media
same,fold more potent than catechin gallate (CG),[3],about 3 fold
O=C(O[C@H]1Cc2ccccc2O[C@@H]1c1cc(O)c(O)c(O)c1)c1cc(O)c(O)c(O)c1 (racemic) [1a],times less potent against DYRK1A compared to the di-hydroxy derivatives,[3],about 4 times
same,IC50,"[3]; read-out: DYRK1A IC50, ELISA assay",422 nM
O=C(O[C@@H]1Cc2c(O)cc(O)cc2O[C@H]1c1cc(O)c(O)c(O)c1F)c1cc(O)c(O)c(O)c1 [1n],stability in biological media,[2],did not translate into a stability improvement in biological media
"O=C(O[C@@H]1Cc2c(O)cc(O)cc2O[C@@H]1c1cc(O)c(O)c(O)c1)c1cc(O)c(O)c(O)c1 [EGCG, Epigallocatechin gallate]",oral bioavailability (F),[4]; rats,up to 5%
same,oral bioavailability (F),[5],up to 12%
same,EAE disease scores,"[1]; oral (PO), 15 mg/kg BID",did not see any significant activity
COc1cc(C(=O)O[C@@H]2Cc3c(O)cc(O)cc3O[C@@H]2c2cc(O)c(O)c(O)c2)cc(O)c1O [EGCG-3”OMe],fold improved oral bioavailability than EGCG,[4],about 6 fold
O=C(OC1Cc2ccccc2CC1c1cc(O)c(O)c(O)c1)c1cc(O)c(O)c(O)c1 (centres unmarked) [1c],stability in biological media,[2],does not improve stability in biological media
"O=C(O[C@@H]1Cc2c(O)cc(O)cc2O[C@H]1c1ccc(O)c(O)c1)c1cc(O)c(O)c(O)c1 [CG, catechin gallate]",exposure increase with intranasal compared to the oral route,[6],50 fold
O=C(O[C@@H]1Cc2c(O)cc(O)cc2O[C@H]1c1cc(O)c(O)c(O)c1)c1cc(O)c(O)c(O)c1F [1f],"spinal cord lesion severity, intranasal versus oral administration",[7],more effective at reducing lesion severity than oral administration
same,fold improvement in activity against DYRK1A compared to GCG,[3],about 3 fold
same,EAE disease scores,"[1]; intranasal, 15 mg/kg twice daily",reversal of the disease scores similar to that observed with FTY720
same,EAE disease scores,"[1]; oral (PO), 15 mg/kg BID",no significant amelioratory effect until the last two days of the study
same,effect of [ATP] on inhibitory potency,[8],only marginally affected
"O=C(O[C@@H]1Cc2c(O)cc(O)cc2O[C@H]1c1cc(O)c(O)c(O)c1)c1cc(O)c(O)c(O)c1 [(−)GCG, reference compound]",effect of [ATP] on inhibitory potency,[8],only marginally affected
"Oc1cc(O)c2c(c1)O[C@H](c1cc(O)c(O)c(O)c1)[C@H](O)C2 [EGC, EpiGalloCatechin, reference compound]",IC50,[3],> 100000 nM
O=C(OC1Cc2c(O)cccc2OC1c1cc(O)c(O)c(O)c1)c1cc(O)c(O)c(O)c1 (centres unmarked) [1b],times less potent against DYRK1A compared to the di-hydroxy derivatives,[3],~2 times

# From publication PMC9067539 (Bioorganic & medicinal chemistry letters, 2022)
